# Assay results as given in US8846746B2, “Pyrazole compound and pharmaceutical use thereof” (Japan Tobacco Inc., priority 2011, dated 2014).
# Molecular target: human SGLT1 (Homo sapiens (Human), UniProt P13866)
# Assay: SGLT1 inhibitory activity: 14C-AMG uptake into CHO-K1 cell line stably expressing human SGLT1
# Type: cell-based
# Details: 14C-AMG uptake, CHO-K1 cells expressing human SGLT1
# Description: SGLT1 inhibitory activity of a test compound (IC50 value) was calculated based on an amount of intake into a cell of labeled α-methyl-D-glucopyranoside (^14C-AMG) which is transported by SGLT1.
# 1) Construction of Human SGLT1 Expression Plasmid
# A DNA fragment containing human SGLT1, wherein NheI recognition and cleavage sequence was added upstream of a Kozac consensus sequence of the vector; and a stop codon (TAG) and a SalI recognition and cleavage sequence was added just downstream of a coding region of the human SGLT1, was amplified by PCR using pCMV6-hSGLT1 (OriGene) as a template. The purified DNA fragment was cleaved by restriction enzymes NheI and SalI, and the obtained fragment was ligated into pcDNA3.1 (+) which was cleaved by NheI and XhoI to construct human SGLT1 expression plasmid.
# 2) Establishment of Stable Cell Lines Expressing Human SGLT1
# A human SGLT1 expression plasmid pcDNA-hSGLT1 was transfected into CHO-K1 cells by Lipofectamine-2000 (Invitrogen). The cells were cultured in the presence of G418 (Nakalai tesque) and drug-resistant cells were selected. A cell line having the highest S/B ratio of an amount of ^14C-AMG uptake per cell treated by solvent to an amount of ^14C-AMG uptake per cell treated by phlorizin (SGLT inhibitor) was selected from the drug-resistant cells as a stable cell lines expressing human SGLT1.
# 3) Evaluation of SGLT1 Inhibitory Activity
# The stable cell line expressing human SGLT1 was seeded at 5×10^4 cells/well on BioCoat™ Poly-D-Lysine 96 well plate with Lid (Becton Dickinson and Company) and cultured at 37° C. under 5% CO2 overnight. The medium was replaced with 100 μL/well of a Na (−) buffer (140 mM choline chloride, 2 mM KCl, 1 mM MgCl2, 1 mM CaCl2, 10 mM HEPES, 5 mM Tris, pH7.4) followed by incubation for 20 minutes at 37° C. under 5% CO2. After removing the Na (−) buffer, a test compound solution which was prepared from Na (+) buffer (140 mM NaCl, 2 mM KCl, 1 mM MgCl2, 1 mM CaCl2, 10 mM HEPES, 5 mM Tris, pH7.4) containing BSA was added thereto at 40 μL/well. In addition, Na (+) buffer containing 8 kBq of ^14C-AMG and 2 mM AMG was added thereto at 40 μL/well, and was mixed well. Na (−) buffer containing BSA was added to a blank well at 40 μL/well and additionally adding a Na (+) buffer containing 8 kBq of ^14C-AMG and 2 mM AMG, and was mixed well. Cells were incubated for 1 hour at 37° C. under 5% CO2. After the reaction, the cells were washed twice with 100 μL/well of iced wash buffer (100 mM AMG, 140 mM choline chloride, 2 mM KCl, 1 mM MgCl2, 1 mM CaCl2, 10 mM HEPES, 5 mM Tris, pH7.4), then lysed in 50 μL/well of a 0.2N aqueous solution of NaOH. The cell lysate was transferred to OptiPlate96 (Perkin-Elmer) and 100 μL/well of MicroScint-40 (Perkin-Elmer) was dispensed. The radioactivity was counted by TOPCOUNT NXT (Perkin-Elmer).
# A data was obtained by deducting the average value (CPM) of blank wells from the average value (CPM) of each treated well. The inhibition ratio (%) was calculated by the following formula: inhibition rate (%)=[(A−B)/A]×100, where A is a data of the solvent control, and B is a data of a test compound.
# human SGLT1, sequence (P13866 whole entry): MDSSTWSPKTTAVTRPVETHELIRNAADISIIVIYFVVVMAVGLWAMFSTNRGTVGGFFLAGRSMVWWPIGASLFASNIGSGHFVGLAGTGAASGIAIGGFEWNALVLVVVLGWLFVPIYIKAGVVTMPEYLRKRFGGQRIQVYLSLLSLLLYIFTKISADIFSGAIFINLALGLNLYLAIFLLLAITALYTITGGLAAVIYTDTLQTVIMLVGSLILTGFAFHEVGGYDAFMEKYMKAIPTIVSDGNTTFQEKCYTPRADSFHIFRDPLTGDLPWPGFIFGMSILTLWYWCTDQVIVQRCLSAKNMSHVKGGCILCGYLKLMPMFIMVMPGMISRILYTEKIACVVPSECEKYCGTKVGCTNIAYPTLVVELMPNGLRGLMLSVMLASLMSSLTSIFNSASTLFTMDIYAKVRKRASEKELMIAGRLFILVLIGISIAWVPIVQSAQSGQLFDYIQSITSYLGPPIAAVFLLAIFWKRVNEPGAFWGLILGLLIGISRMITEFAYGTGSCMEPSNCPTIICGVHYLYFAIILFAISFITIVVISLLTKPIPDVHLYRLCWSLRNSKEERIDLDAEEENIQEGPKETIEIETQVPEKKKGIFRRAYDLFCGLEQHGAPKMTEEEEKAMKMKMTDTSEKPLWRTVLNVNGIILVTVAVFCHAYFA
row,SMILES,IC50 [nM]
1,"CCC(F)(F)c1cccc(-c2cc(NC(=O)C3CCC(=O)NC3)nn2C2CCOCC2)c1 (single isomer, unassigned) [Example 185]",66
2,O=C1C[C@@H](C(=O)Nc2cc(-c3cccc(C(F)(F)F)c3)n(-c3ccccc3)n2)CN1 [Example 27],23
3,"CC1(C)CCCC(c2cc(NC(=O)[C@H]3CNC(=O)C3)nn2-c2ccccc2)C1 (single isomer, unassigned) [Example 88]",17
4,CCC(F)(F)c1cccc(-c2cc(NC(=O)[C@H]3CNC(=O)[C@@H]3C)nn2-c2ccccc2)c1 [Example 154],1.1
5,CCCc1cccc(-c2cc(NC(=O)[C@H]3CNC(=O)C3)nn2CC(F)(F)F)c1 [Example 66],210
6,CCCc1cccc(-c2cc(NC(=O)[C@H]3CNC(=O)C3)nn2-c2cccc(F)c2)c1 [Example 103],5
7,CCCc1cccc(-c2cc(NC(=O)[C@H]3CNC(=O)C3)nn2C(F)(F)F)c1 [Example 86],54
8,O=C1C[C@@H](C(=O)Nc2cc(-c3cccc(C4CC4)c3)n(-c3ccccc3)n2)CN1 [Example 92],25
9,CCCc1cccc(-c2cc(NC(=O)C3CNC(=O)C3CC)nn2-c2ccccc2)c1 (racemic) [Example 60],17
10,Cc1ccc(-c2cc(NC(=O)[C@H]3CNC(=O)C3)nn2-c2ccccc2)cc1 [Example 58],3500

# More lines, now with the values ahead:
row,IC50 [nM],SMILES
1,1600,O=C1CC(C(=O)Nc2cc(-c3ccccc3)n(-c3ccccc3)n2)CN1 (racemic) [Example 9]
2,80,CCCc1cc(-c2cc(NC(=O)[C@@H]3CNC(=O)C3)nn2-c2ccccc2)ccc1F [Example 51]
3,350,O=C1C[C@H](C(=O)Nc2cc(-c3cccc(Cl)c3)n(-c3ccccc3)n2)CN1 [Example 39]
4,11,CCCc1cccc(-c2cc(NC(=O)[C@H]3CNC(=O)C3)nn2-c2ccccc2OC)c1 [Example 133]
5,18,CC(C)c1cccc(-c2cc(NC(=O)[C@@H]3CNC(=O)C3)nn2-c2ccccc2)c1 [Example 55]
6,22,CC(F)(F)c1cccc(-c2cc(NC(=O)[C@H]3CNC(=O)C3)nn2-c2ccccc2)c1 [Example 161]
7,56,CC(C)(C)c1cccc(-c2cc(NC(=O)[C@H]3CNC(=O)C3)nn2C2CCOCC2)c1 [Example 177]
8,3.1,CCCc1cc(F)cc(-c2cc(NC(=O)[C@H]3CNC(=O)C3)nn2-c2ccccc2)c1 [Example 74]
9,1.3,O=C1C[C@@H](C(=O)Nc2cc(-c3cccc(OC(F)(F)F)c3)n(-c3ccccc3Cl)n2)CN1 [Example 130]
10,9.2,CCC(F)(F)c1cccc(-c2cc(NC(=O)[C@H]3CNC(=O)C3)nn2CCC(C)C)c1 [Example 142]

# Same assay, conditions: 14C-AMG uptake, CHO-K1 cells stably expressing human SGLT1
row,SMILES,IC50 [nM]
1,O=C1C[C@@H](C(=O)Nc2cc(-c3cccc(COCCC(F)(F)F)c3)n(-c3ccccc3)n2)CN1 [Example 282],9.9
2,CC(C)(C)COCc1cccc(-c2cc(NC(=O)[C@@H]3CNC(=O)C3)nn2-c2ccccc2)c1 [Example 315],15.5
3,COc1cc(-n2nc(NC(=O)[C@@H]3CNC(=O)C3)cc2-c2cccc(COCC(F)(F)F)c2)ccc1F [Example 416],15
4,CCCOC(C)(C)c1cccc(-c2cc(NC(=O)[C@@H]3CNC(=O)C3)nn2-c2ccccc2)c1 [Example 326],15
5,CCOc1cc(F)cc(-n2nc(NC(=O)[C@@H]3CNC(=O)C3)cc2-c2cccc(CO[C@H](C)C(F)(F)F)c2)c1 [Example 534],1.8
6,CCOc1cc(F)cc(-n2nc(NC(=O)[C@@H]3CNC(=O)C3)cc2-c2cccc(COCC(F)(F)F)c2)c1 [Example 528],3.6
7,O=C1NC[C@@H](C(=O)Nc2cc(-c3cccc(OC(F)(F)F)c3)n(-c3ccccc3)n2)N1 [Example 266],45
8,C[C@@H](OCc1cc(Cl)cc(-c2cc(NC(=O)[C@@H]3CNC(=O)C3)nn2-c2cccc(F)c2)c1)C(F)(F)F [Example 578],8.5
9,CC(C)(C)C(=O)c1cccc(-c2cc(NC(=O)[C@@H]3CNC(=O)C3)nn2-c2ccccc2)c1 [Example 356],11
10,CCCc1cccc(-c2cc(NC(=O)[C@@H]3CNC(=O)C3)nn2-c2ccc(F)c(OC(C)C)c2)c1 [Example 391],3.75
11,O=C1C[C@H](C(=O)Nc2cc(-c3cccc(OCCCC(F)(F)F)c3)n(-c3ccccc3)n2)CN1 [Example 273],27
12,O=C1C[C@H](C(=O)Nc2cc(-c3cc(F)cc(COCC(F)(F)F)c3)n(-c3cccc(F)c3)n2)CN1 [Example 520],18
13,CC(C)(OCc1cc(F)cc(-c2cc(NC(=O)[C@@H]3CNC(=O)C3)nn2-c2ccccc2)c1)C(F)(F)F [Example 567],14
14,O=C1C[C@H](C(=O)Nc2cc(-c3cc(Cl)cc(COCC(F)(F)F)c3)n(-c3ccc(F)cc3)n2)CN1 [Example 589],55

# Continued, values first:
row,IC50 [nM],SMILES
1,16,CCCc1cccc(-c2cc(NC(=O)[C@@H]3CNC(=O)C3)nn2-c2cccc(OCc3ccccc3)c2)c1 [Example 340]
2,7.2,CCCc1cccc(-c2cc(NC(=O)[C@@H]3CNC(=O)C3)nn2-c2cccc(OC)c2)c1 [Example 343]
3,8.3,CCOc1ccc(F)c(-n2nc(NC(=O)[C@@H]3CNC(=O)C3)cc2-c2cccc(OC(F)(F)F)c2)c1 [Example 516]
4,13,CCCc1cccc(-c2cc(NC(=O)[C@@H]3CNC(=O)C3)nn2-c2cccc(C(F)(F)F)c2)c1 [Example 401]
5,11,COCCOc1ccc(F)c(-n2nc(NC(=O)[C@@H]3CNC(=O)C3)cc2-c2cccc(OC(F)(F)F)c2)c1 [Example 518]
6,49,"CCCc1cccc(-c2cc(NC(=O)C3CNC(=O)C3CC)nn2-c2ccccc2)c1 (single isomer, unassigned) [Example 309]"
7,13,CCCc1cccc(-c2cc(NC(=O)[C@@H]3CNC(=O)C3)nn2-c2ccc(F)c(OCCO)c2)c1 [Example 415]
8,60,C[C@@H](OCc1cc(Cl)cc(-c2cc(NC(=O)[C@H]3CNC(=O)N3)nn2-c2ccccc2)c1)C(F)(F)F [Example 597]
9,19,O=C1C[C@H](C(=O)Nc2cc(-c3cccc(OC(F)(F)F)c3)n(-c3cccc(OCc4ccccc4)c3)n2)CN1 [Example 436]
10,6.5,CC(C)Oc1cccc(-n2nc(NC(=O)[C@@H]3CNC(=O)C3)cc2-c2cccc(CO[C@H](C)C(F)(F)F)c2)c1F [Example 486]
11,17,CC(C)(OCc1cccc(-c2cc(NC(=O)[C@@H]3CNC(=O)C3)nn2-c2ccc(F)cc2)c1)C(F)(F)F [Example 574]
12,1.5,"CCCc1cccc(-c2cc(NC(=O)C3CNC(=O)C34CC4)nn2-c2ccccc2)c1 (single isomer, unassigned) [Example 360]"
13,8.5,COc1cc(F)cc(-n2nc(NC(=O)[C@@H]3CNC(=O)C3)cc2-c2cccc(COCC(F)(F)F)c2)c1 [Example 527]
14,1.4,CC(C)Oc1ccc(F)c(-n2nc(NC(=O)[C@@H]3CNC(=O)C3)cc2-c2cccc(CO[C@H](C)C(F)(F)F)c2)c1 [Example 464]
15,38,O=C1NC[C@@H](C(=O)Nc2cc(-c3cccc(COCC(F)(F)F)c3)n(-c3ccccc3)n2)N1 [Example 558]

# Same assay, conditions: CHO-K1, at 0.1 uM
row,inhibition at 0.1 µM [%],SMILES
1,42,CCC1C(=O)NCC1C(=O)Nc1cc(-c2cccc(OC(F)(F)F)c2)n(-c2ccccc2)n1 (stereo not drawn) [Example 310]
2,40,CCCc1cccc(-c2cc(NC(=O)C3CC[S+]([O-])CC3)nn2-c2ccccc2)c1 (stereo not drawn) [Example 317]
3,16,C[C@@H]1C[C@@H](n2nc(NC(=O)[C@H]3CNC(=O)[C@@H]3C)cc2-c2cccc(OC(F)(F)F)c2)C[C@H](C)O1 [Example 220]

# Same assay, conditions: CHO-K1, at 0.3 uM
row,inhibition at 0.3 µM [%],SMILES
1,22,CC(C)S(=O)(=O)Cc1cccc(-c2cc(NC(=O)[C@@H]3CNC(=O)C3)nn2-c2ccccc2)c1 [Example 566]

# Same assay, conditions: at 0.1 uM
row,human SGLT1 % Inhibition [%],SMILES
1,48,CCCc1cccc(-c2cc(NC(=O)C3CNC(=O)CO3)nn2-c2ccccc2)c1 (stereo not drawn) [Example 277]
